Earlier results on 2 compounds are cited in patent US20040047835A1, “Combinatorial drug therapy using polymer drug conjugates” (priority 2002, published 2004).

Data set [1] relates to cell cycle.
Data set [2] deals with mammary MCa-4 tumor. As to conditions: mammary MCa-4 tumor model; radiation preceded drug injection.
Data set [3] deals with ovarian Oca-1 carcinoma. As to conditions: equivalent paclitaxel dose of 60 mg/kg 24 h after tumor irradiation; versus radiation and paclitaxel.
In data set [4] the test system is tumor-bearing hosts. The following applies: compared with free (unconjugated) paclitaxel.

Where two headings read alike, the source gives them in different places.

As to `CC(=O)O[C@H]1C(=O)[C@@]2(C)[C@H]([C@H](OC(=O)c3ccccc3)[C@]3(O)C[C@H](OC(=O)[C@H](O)[C@@H](NC(=O)c4ccccc4)c4ccccc4)C(C)=C1C3(C)C)[C@]1(OC(C)=O)CO[C@@H]1C[C@@H]2O` [paclitaxel, reference compound], the “effect on cell cycle” value in data set [1] was “induced a G2/M arrest”. Also, the “interaction of combined radiation and drug” value in data set [2] was “additive or sub-additive interaction”.

Consider “poly(L-glutamic acid)-paclitaxel [PG-TXL]”, for which the “effect on cell cycle” value in data set [1] is reported as “induced a G2/M arrest”. Besides, the “tumor growth delay, combined with radiation” value in data set [3] is recorded as “significantly greater tumor growth delay”. Moreover, the “interaction of combined radiation and drug” value in data set [2] is “synergistic interaction”. Besides, the “anti-tumor activity / efficacy” value was “increased efficacy” in data set [4] and “superior anti-tumor activity” in data set [4] (listed as PGTXL).
